Results as given in patent US7012086B1, “Treatment of retrovirus induced derangements with niacin compounds” (The Foundation For Innovative Therapies, Inc., priority 2000, dated 2006).

Assays:
[1] = system: HIV infected persons; experiment: Clinical trial of niacin (nicotinamide) in HIV infected persons: plasma amino acids by HPLC, tolerability; type: in vivo, human
Experimental: Four HIV infected persons participated in a trial of niacin in the form of nicotinamide. The participants were at various stages of their HIV infection as judged by their CD4 counts which ranged from 0 to 620 [see table 1]. […] Two of the participants had known co-infections infections typical of HIV infected persons. Each participant took 3 grams of nicotinamide per day for 2 months. […] Each participant's plasma tryptophan was measured prior to treatment and at the end of treatment [see table 3]. […] All amino acid concentrations were measured by High Performance Liquid Chromotography [HPLC].

[2] = system: HIV infected persons; conditions: cited from earlier work

Q: Which “tryptophan status (plasma tryptophan), in words” value ([1]; four patients across the range of baseline CD4 count, antiviral medication and co-infections) does the source give for `O=C(O)c1cccnc1` [Niacin] here?
A: Its value is “improve tryptophan status in all four patients”.

Q: What does the source list for `Cc1cn([C@H]2C[C@H](N=[N+]=[N-])[C@@H](CO)O2)c(=O)[nH]c1=O` [Zidovudine, zidovudine]?
A: effect on plasma tryptophan in HIV infected persons ([2]; HIV infected persons): replete plasma tryptophan; side effects ([2]; in vivo): headache, nausea, and bone marrow suppression

Q: For `NC(=O)c1cccnc1` [nicotinamide], which “adverse side effects of treatment” value ([1]; 3 grams of nicotinamide per day for 2 months, four HIV infected persons) is on record?
A: Its value is “not associated with any adverse side effects”.

Q: And the “average increase of plasma tryptophan of all participants” value ([1]; 3 grams of nicotinamide per day orally for 2 months, four HIV infected persons, before vs end of treatment, p=0.0112 (paired t-test))?
A: The value was 43.9%.
